Series [1] deals with T1, hERG current (hERG-transfected HEK293 cells) (Homo sapiens, UniProt Q12809).
T1 construct: host or cells: HEK293
The series is described as follows: hERG whole cell patch clamp test. It is filed as cell-based. To be noted: whole cell patch clamp, hERG-transfected HEK293 cells. The method, then:
(§1) Using human ether-a-go-go related gene (hERG)-transfected HEK293 cells (Cytomyx Limited), an influence on hERG current was examined according to the whole cell patch clamp technique. The hERG-transfected HEK293 cells were passaged using a CO2 incubator (BNA-111, TABAI ESPEC CORP.) under the set conditions of 37° C., 5% CO2, saturated humidity. Culture containers used were Collagen Type I Coated 75 cm^2 flask (4123-010, AGC TECHNO GLASS CO., Ltd.) and Collagen Type I Coated 35 mm culture dish (4000-010, AGC TECHNO GLASS CO., Ltd.). The culture medium used was E-MEM (Eagle Minimum Essential Medium (Earle's Salts, Nikken biomedical laboratory) added with 10% FCS (Fetal bovine serum, BioWest, L.L.C.) and 1% MEM Non-Essential Amino Acids Solution (NEAA, Invitrogen Corporation). Geneticin for the selection of hERG gene expressing cells was added thereto to a concentration of 400 μg/mL. As the cells for the measurement, 3×10^4 hERG-transfected HEK293 cells were plated on a 35 mm culture dish 4 to 7 days before measurement of the hERG current. The culture dish produced for the measurement contained the above-mentioned culture medium without geneticin (Invitrogen Corporation).
(§2) The highest evaluation concentration of each compound was determined from the highest concentration at which precipitation was not found in the standard extracellular fluid (NaCl: 140 mmol/L, KCl: 2.5 mmol/L, MgCl2: 2 mmol/L, CaCl2: 2 mmol/L, HEPES: 10 mmol/L, glucose: 10 mmol/L (adjusted to pH 7.4 with Tris-base)). As the application method, each solution to be applied was ejected from a Y-tube having a tip diameter of about 0.25 mm, which was adjacent (about 2 mm) to the cells, and applied to the cells. The ejection rate was about 0.4 mL/min.
(§3) The experiment was performed at room temperature under a phase contrast microscope. The 35 mm culture dish plated with the cells was set on a measurement apparatus, and the standard extracellular fluid was continuously applied to the cells from the Y-tube. A glass electrode for the measurement was filled with an intracellular fluid (Potassium Gluconate: 130 mmol/L, KCl: 20 mmol/L, MgCl2: 1 mmol/L, ATP-Mg: 5 mmol/L, EGTA: 3.5 mmol/L, HEPES: 10 mmol/L (adjusted to pH 7.2 with Tris-base)). A conventional whole cell patch clamp method was applied to the cells, and the maintenance electric potential was set to −80 mV. Under a fixed electric potential, the whole cell current was amplified by an amplifier for patch clamp (AXOPATCH-200B, Axon Instruments, Inc.), and the data was loaded into a computer (IMC-P642400, Intermedical Co., Ltd.) using a data acquisition analysis software (pCLAMP 9.2, Axon Instruments, Inc.).
(§4) The measurement of the hERG current was performed in the following two steps. In both cases, the hERG current was initiated by giving a command potential (maintenance electric potential −80 mV, prepulse+20 mV, 1.5 sec, test-pulse −50 mV, 1.5 sec).
(§5) Step (1): The above-mentioned command potential was given at 0.1 Hz for 2 min.
(§6) Step (2): The above-mentioned command potential was subjected to P/3 subtraction of pCLAMP 9.2 to remove leak current. This was repeated three times and an average thereof was taken as hERG current.
(§7) Subsequent to step (1), Step (2) was performed (about 3 min), and the maximum tail current obtained by applying a test-pulse to the hERG current obtained by the method of step (2) was taken as hERG current value. Hereafter, the operations of (1) and (2) were alternately repeated until completion of the experiment and the hERG current value was measured.
(§8) Stable hERG current value was recorded three times (about 10 min), and the standard extracellular fluid was instantaneously exchanged with each application fluid. The hERG current value was measured three times (about 10 min) in the same manner during perfusion of the application fluid, and the current value obtained by the 3rd measurement was taken as hERG current value after perfusion of the application fluid. […]
Background: The hERG channel carries a current that helps repolarise heart muscle cells.

A further series deals with T2, hERG (Homo sapiens, UniProt Q12809).
T2 construct: host or cells: HEK293
T2 sequence (Q12809 whole entry): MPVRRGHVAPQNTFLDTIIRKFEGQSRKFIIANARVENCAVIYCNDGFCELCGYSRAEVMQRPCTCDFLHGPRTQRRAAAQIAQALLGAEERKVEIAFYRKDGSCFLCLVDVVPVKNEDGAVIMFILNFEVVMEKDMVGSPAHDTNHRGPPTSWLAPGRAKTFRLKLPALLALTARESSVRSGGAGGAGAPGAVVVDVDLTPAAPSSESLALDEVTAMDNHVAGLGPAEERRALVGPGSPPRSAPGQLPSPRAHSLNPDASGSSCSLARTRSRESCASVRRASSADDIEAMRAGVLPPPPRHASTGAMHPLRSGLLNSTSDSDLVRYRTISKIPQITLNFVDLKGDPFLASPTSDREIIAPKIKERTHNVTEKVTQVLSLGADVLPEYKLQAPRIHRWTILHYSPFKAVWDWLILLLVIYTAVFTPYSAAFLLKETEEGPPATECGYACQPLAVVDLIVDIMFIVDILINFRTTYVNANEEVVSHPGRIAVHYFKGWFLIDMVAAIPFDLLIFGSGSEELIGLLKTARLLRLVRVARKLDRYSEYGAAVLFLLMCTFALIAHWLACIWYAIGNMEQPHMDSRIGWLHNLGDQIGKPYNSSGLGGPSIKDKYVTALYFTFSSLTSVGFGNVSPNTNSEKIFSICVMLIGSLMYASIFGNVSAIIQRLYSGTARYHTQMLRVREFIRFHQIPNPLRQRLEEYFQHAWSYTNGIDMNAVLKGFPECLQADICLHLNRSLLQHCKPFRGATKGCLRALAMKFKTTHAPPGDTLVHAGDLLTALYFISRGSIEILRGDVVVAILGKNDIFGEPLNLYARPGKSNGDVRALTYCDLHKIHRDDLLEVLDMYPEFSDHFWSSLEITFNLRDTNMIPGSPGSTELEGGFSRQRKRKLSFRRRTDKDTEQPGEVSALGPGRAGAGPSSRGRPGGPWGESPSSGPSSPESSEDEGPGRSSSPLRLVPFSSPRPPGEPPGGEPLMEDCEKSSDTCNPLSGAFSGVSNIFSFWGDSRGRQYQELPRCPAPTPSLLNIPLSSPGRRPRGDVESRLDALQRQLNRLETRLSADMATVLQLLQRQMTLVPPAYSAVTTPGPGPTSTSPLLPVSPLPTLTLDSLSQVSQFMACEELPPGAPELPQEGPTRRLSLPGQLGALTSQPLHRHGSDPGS
Put plainly: hERG whole cell patch clamp test. It is filed as cell-based. The note with it: human, HEK293 cells transfected with hERG, pH 7.4, read-out: hERG inhibition rate (%); for inhibition at 3 μmol/L: concentration 3 μmol/L; for inhibition at 30 μmol/L: concentration 30 μmol/L. The method, then:
as §1, §2, §3, §4, §5, §6, §7, §8

pIC50: −log10 of the molar value.

T1 sequence (Q12809 whole entry): as above

In series [1], `CC(C)(C(N)=O)n1cc(-c2cc(F)cc3c2-c2ccccc2[C@]3(O)C(F)(F)F)cn1` [compound (D), 2-{4-[(9R)-2-Fluoro-9-hydroxy-9-(trifluoromethyl)-9H-fluoren-4-yl]-1H-pyrazol-1-yl}-2-methylpropanamide] showed a pIC50 of 4.85. On hERG, the inhibition at 3 μmol/L was found to be 9.4% and the inhibition at 30 μmol/L was determined as 67.5%.
Take `CC(C)(O)COc1cc(-c2cnn(CCO)c2)c2c(c1)[C@@](O)(C(F)(F)F)c1ccccc1-2` [compound (C), (9R)-4-[1-(2-Hydroxyethyl)-1H-pyrazol-4-yl]-2-(2-hydroxy-2-methylpropoxy)-9-(trifluoromethyl)-9H-fluoren-9-ol]: the pIC50 in series [1] was 4.88. Besides, on hERG, the inhibition at 3 μmol/L was 11.5% and the inhibition at 30 μmol/L amounted to 69%.

Usually pIC50 stands for −log10 of the IC50, conventionally taken in molar units. As a reminder, the inhibition is the percentage by which the read-out fell short of the control.

The values are drawn from patent US20150018403A1, “FLUORENE-AMIDE COMPOUNDS AND PHARMACEUTICAL USE THEREOF” (JAPAN TOBACCO INC., priority 2013, published 2015).
